{"source": "patent US20130053350A1", "about": "“PPAR-SPARING THIAZOLIDINEDIONES AND COMBINATIONS FOR THE TREATMENT OF NEURODEGENERATIVE DISEASES” (Metabolic Solutions Development Company, LLC, priority 2009, published 2013)", "key": {"astrocyte marker GFAP": {"test_system": "astrocyte marker GFAP", "experiment": "GFAP astrocyte marker staining of sections from treated mice", "assay_type": "in vivo", "conditions": "sections from control and treated mice", "procedure": "(§1) 5XFAD mice harbor 5 familial mutations (3 in the amyloid precursor protein; 2 in presenilin 1) and develop robust plaque pathology as early as 6 weeks. These mice were treated beginning at 2 months of age for a period of 4 weeks with control chow or chow containing Compound X to deliver 390 mg/kg for 4 weeks."}, "PGC-1α": {"test_system": "PGC-1α", "experiment": "Synergy with norepinephrine on expression of PGC-1α mRNA in precursor BAT cells (quantitative PCR)", "assay_type": "cell-based", "conditions": "3 μM compound for seven days, then 1 μM norepinephrine for 2 hours, vs control without compound", "procedure": "Another example of the ability of augmented signaling between cyclic nucleotides and compounds of Formula I is shown by the effect on expression of PGC-1α, a known regulator of mitochondrial biogenesis. Increased numbers of mitochondria are predictive of utility for the reduction of body weight.\nPrecursor BAT cells were isolated as described above and treated with or without 3 μM compounds: 1.] Compound X: 5-(4-(2-(5-ethylpyridin-2-yl)-2-oxoethoxy)benzyl)-1,3-thiazolidine-2,4-dione; 2.] Compound Y: 5-(4-(2R)-2-(5-ethylpyridin-2-yl)-2-hydroxyethoxyy)benzyl)-1,3-thiazolidine-2,4-dione; or 3.] Compound Z: 5-(4-(2-(3-methoxyphenyl)-2-oxoethoxy)benzyl)-1,3-thiazolidine-2,4-dione for seven days followed by treatment with 1 μM norepinephrine for 2 hours. Total RNA was isolated from the cells and the RNA message (mRNA) for PGC-1α was measured by quantitative polymerase chain reactions."}, "5XFAD mice": {"test_system": "5XFAD mice", "experiment": "Thioflavin S stained plaques in the hippocampus of 5XFAD mice", "assay_type": "in vivo", "procedure": "as §1\nReferring to FIG. 7, thioflavin S stained plaques were counted in the hippocampus of the 5XFAD mice. […] Note that the plaques having less than 100 micron size were excluded from the graph, and those amounted to about 70% of all the plaques in both Control and Compound X treated groups."}, "PPARγ": {"test_system": "PPARγ", "conditions": "dosed to full effect for insulin sensitizing actions in vivo; cited from earlier work"}, "[1]": {"conditions": "chow delivering 390 mg/kg for 4 weeks, hippocampus, vs control group"}}, "data": [{"smiles": "CCc1ccc(C(=O)COc2ccc(CC3SC(=O)NC3=O)cc2)nc1", "note": "(centres unmarked) [Mitoglitazone]", "values": [{"measurement": "average number of GFAP positively stained cells per section, P value control vs treated", "setting": "astrocyte marker GFAP", "value": 0.012}]}, {"smiles": "CCc1ccc([C@@H](O)COc2ccc(CC3SC(=O)NC3=O)cc2)nc1", "note": "(some centres unmarked) [Compound Y]", "values": [{"measurement": "PGC-1α message (mRNA) in the presence of norepinephrine", "setting": "PGC-1α", "value": "increase"}]}, {"smiles": "COc1cccc(C(=O)COc2ccc(CC3SC(=O)NC3=O)cc2)c1", "note": "(centres unmarked) [Compound Z, 5-(4-(2-(3-methoxyphenyl)-2-oxoethoxy)benzyl)-1,3-thiazolidine-2,4-dione]", "values": [{"measurement": "PGC-1α message (mRNA) in the presence of norepinephrine", "setting": "PGC-1α", "value": "increase"}]}, {"smiles": "CCc1ccc(C(=O)COc2ccc(CC3SC(=O)NC3=O)cc2)nc1", "note": "(centres unmarked) [Compound X, 5-(4-(2-(5-ethylpyridin-2-yl)-2-oxoethoxy)benzyl)-1,3-thiazolidine-2,4-dione]", "values": [{"measurement": "PGC-1α message (mRNA) in the presence of norepinephrine", "setting": "PGC-1α", "value": "increase"}, {"measurement": "number of plaques", "setting": "5XFAD mice; [1]", "value": "less than the control group"}, {"measurement": "size of plaques", "setting": "5XFAD mice; [1]", "value": "less than the control group"}, {"measurement": "plaques having less than 100 micron size, share of all the plaques", "setting": "5XFAD mice; same in Control and treated groups, excluded from the graph", "value": "about 70%"}]}, {"smiles": "CN(CCOc1ccc(CC2SC(=O)NC2=O)cc1)c1ccccn1", "note": "(centres unmarked) [rosiglitazone]", "values": [{"measurement": "a P2 expression in the liver", "setting": "PPARγ", "value": "increase"}]}]}
